This passage reports % of control and % binding results from ChEMBL document CHEMBL5465560, “Selectivity Literature for EUbOPEN Chemogenomic Library” (2024).

The target of experiment [1] is Mitogen-activated protein kinase 3 (Homo sapiens, UniProt P27361). The experiment is described as follows: Selectivity interaction (KinomeScan (DiscoverX)) EUB0000595a MAPK3. Conditions: at 10 µM.
In experiment [2] the target is RAF proto-oncogene serine/threonine-protein kinase (Homo sapiens) (UniProt P04049). Put plainly: Selectivity interaction (KinomeScan (DiscoverX)) EUB0000607a RAF1. The conditions noted are these: at 10 µM.
For experiment [3], the system named is Phosphatidylinositol 4,5-bisphosphate 3-kinase catalytic subunit alpha isoform (Homo sapiens), P42336 [E545K]. Conditions: at 10 µM.
For experiment [4], the target named is Serine/threonine-protein kinase pim-2 (Homo sapiens, UniProt Q9P1W9). Conditions: at 10 µM.
The target of experiment [5] is Serine/threonine-protein kinase PLK2 (Homo sapiens, UniProt Q9NYY3). Put plainly: Selectivity interaction (ProQinase) EUB0000171b PLK2.
Experiment [6] deals with T1, Dual serine/threonine and tyrosine protein kinase (Homo sapiens) (UniProt Q6XUX3).
T1 sequence (whole entry): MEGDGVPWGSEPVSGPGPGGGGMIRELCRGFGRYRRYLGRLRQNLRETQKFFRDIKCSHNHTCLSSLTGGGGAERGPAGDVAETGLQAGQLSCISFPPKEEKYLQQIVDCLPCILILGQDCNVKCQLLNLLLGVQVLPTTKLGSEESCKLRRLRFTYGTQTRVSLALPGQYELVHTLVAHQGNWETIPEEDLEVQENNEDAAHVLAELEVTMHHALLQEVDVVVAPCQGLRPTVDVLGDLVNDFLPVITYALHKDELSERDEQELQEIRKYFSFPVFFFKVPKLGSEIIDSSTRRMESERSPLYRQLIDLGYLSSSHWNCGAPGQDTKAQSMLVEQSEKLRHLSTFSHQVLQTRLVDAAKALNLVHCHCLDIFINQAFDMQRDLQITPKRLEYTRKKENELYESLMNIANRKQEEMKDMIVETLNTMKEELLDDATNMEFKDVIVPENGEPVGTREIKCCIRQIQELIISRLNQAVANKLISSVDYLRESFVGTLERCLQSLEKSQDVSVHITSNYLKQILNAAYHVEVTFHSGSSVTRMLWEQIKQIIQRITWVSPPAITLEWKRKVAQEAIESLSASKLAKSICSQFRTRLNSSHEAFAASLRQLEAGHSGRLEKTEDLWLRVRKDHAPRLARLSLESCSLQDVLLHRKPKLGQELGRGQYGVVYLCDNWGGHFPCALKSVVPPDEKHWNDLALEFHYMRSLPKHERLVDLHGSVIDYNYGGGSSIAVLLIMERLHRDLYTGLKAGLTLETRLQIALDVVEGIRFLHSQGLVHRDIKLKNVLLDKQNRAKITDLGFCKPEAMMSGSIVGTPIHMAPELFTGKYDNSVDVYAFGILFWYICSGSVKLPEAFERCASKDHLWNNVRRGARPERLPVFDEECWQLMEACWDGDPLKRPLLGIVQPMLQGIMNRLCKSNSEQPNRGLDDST
The experiment is described as follows: Selectivity interaction (Ambit KINOMEscan and KiNATiv profiling in Jurkat cells) EUB0000090b DSTYK. The class given is cell-based. The conditions noted are these: at 1 µM.

The target in experiment [7] is Mitogen-activated protein kinase kinase kinase 10 (Homo sapiens) (UniProt Q02779). The experiment is described as follows: Selectivity interaction (KinomeScan (DiscoverX)) EUB0000655a MAP3K10. Conditions: at 10 µM.
The target of experiment [8] is Cyclin-dependent kinase 14 (Homo sapiens) (UniProt O94921). Put plainly: Selectivity interaction (KinomeScan (DiscoverX)) EUB0000618a CDK14. The conditions noted are these: at 10 µM.
Experiment [9] concerns the target Receptor tyrosine-protein kinase erbB-4 (Homo sapiens, UniProt Q15303). The experiment is described as follows: Selectivity interaction (KinomeScan (DiscoverX)) EUB0000618a ERBB4. Conditions: at 10 µM.
Experiment [10] addresses T2, Phosphatidylinositol 4,5-bisphosphate 3-kinase catalytic subunit delta isoform (Homo sapiens) (UniProt O00329).
T2 sequence (whole entry): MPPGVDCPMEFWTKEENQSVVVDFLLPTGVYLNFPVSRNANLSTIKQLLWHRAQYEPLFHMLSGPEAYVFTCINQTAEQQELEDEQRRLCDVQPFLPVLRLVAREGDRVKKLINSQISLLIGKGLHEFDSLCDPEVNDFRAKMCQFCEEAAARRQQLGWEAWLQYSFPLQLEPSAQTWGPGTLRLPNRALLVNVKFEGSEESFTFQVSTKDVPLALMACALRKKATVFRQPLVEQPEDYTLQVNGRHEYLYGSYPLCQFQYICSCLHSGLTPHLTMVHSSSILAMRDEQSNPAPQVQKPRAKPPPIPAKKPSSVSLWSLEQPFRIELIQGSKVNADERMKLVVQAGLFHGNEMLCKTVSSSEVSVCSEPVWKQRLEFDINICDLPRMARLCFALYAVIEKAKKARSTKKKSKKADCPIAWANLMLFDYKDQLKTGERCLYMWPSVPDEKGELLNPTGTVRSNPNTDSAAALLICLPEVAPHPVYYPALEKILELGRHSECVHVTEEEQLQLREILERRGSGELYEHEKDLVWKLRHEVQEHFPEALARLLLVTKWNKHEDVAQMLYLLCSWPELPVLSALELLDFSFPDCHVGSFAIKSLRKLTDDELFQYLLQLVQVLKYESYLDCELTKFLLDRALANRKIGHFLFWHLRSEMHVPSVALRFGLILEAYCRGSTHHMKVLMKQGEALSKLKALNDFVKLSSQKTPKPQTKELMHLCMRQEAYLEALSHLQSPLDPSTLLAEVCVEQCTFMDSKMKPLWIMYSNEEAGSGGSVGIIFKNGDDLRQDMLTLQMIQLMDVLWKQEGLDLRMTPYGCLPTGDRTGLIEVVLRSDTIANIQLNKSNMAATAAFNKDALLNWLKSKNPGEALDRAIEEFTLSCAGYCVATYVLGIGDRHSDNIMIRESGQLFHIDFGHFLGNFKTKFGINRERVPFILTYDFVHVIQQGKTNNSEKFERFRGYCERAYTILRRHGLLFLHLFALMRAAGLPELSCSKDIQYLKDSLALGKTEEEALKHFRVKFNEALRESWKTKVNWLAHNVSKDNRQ
Put plainly: Selectivity interaction (KinomeScan (DiscoverX)) EUB0000092b PIK3CD. The conditions noted are these: at 10 µM.

The target in experiment [11] is Dual specificity protein kinase CLK1 (Homo sapiens, UniProt P49759). The experiment is described as follows: Selectivity interaction (KinomeScan (DiscoverX)) EUB0001079a CLK1. The conditions noted are these: at 1 µM.
Experiment [12] concerns the target Serine/threonine-protein kinase VRK2 (Homo sapiens) (UniProt Q86Y07). The experiment is described as follows: Selectivity interaction (KinomeScan (DiscoverX)) EUB0000229b VRK2. The conditions noted are these: at 10 µM.

Serine/threonine-protein kinase PLK2, sequence (Q9NYY3 whole entry, looked up): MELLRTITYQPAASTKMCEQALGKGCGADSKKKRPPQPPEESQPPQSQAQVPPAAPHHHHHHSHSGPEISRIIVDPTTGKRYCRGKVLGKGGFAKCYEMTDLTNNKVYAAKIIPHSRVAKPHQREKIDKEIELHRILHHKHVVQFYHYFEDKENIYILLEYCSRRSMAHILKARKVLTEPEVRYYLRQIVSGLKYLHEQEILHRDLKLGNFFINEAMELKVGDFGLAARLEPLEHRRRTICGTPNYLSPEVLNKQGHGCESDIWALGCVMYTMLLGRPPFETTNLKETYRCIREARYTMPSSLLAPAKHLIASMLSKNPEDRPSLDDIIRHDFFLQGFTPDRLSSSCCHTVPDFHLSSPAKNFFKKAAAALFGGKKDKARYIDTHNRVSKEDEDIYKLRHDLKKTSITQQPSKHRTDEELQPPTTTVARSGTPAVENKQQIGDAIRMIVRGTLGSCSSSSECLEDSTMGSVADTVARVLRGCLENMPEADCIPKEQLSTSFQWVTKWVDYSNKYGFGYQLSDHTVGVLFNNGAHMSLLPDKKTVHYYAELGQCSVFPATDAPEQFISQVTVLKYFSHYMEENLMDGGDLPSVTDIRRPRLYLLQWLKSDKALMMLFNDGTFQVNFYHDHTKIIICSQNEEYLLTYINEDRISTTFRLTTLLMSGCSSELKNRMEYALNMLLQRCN
Serine/threonine-protein kinase VRK2 (Homo sapiens), sequence (Q86Y07 whole entry): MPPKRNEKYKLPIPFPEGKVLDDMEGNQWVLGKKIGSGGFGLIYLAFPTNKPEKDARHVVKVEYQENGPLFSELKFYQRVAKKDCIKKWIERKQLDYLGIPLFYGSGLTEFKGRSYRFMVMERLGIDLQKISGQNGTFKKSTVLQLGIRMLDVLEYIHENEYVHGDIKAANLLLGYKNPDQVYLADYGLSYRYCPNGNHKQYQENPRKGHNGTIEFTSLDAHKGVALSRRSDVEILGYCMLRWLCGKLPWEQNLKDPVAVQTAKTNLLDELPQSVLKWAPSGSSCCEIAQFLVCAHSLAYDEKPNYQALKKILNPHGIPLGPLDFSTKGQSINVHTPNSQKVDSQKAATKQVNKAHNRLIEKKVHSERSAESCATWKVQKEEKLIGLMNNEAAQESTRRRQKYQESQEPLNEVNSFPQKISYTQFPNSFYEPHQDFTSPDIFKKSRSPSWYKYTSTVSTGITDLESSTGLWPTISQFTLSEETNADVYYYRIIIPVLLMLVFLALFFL
Phosphatidylinositol 4,5-bisphosphate 3-kinase catalytic subunit alpha isoform (Homo sapiens), P42336 [E545K], sequence (P42336 whole entry E545K, canonical isoform): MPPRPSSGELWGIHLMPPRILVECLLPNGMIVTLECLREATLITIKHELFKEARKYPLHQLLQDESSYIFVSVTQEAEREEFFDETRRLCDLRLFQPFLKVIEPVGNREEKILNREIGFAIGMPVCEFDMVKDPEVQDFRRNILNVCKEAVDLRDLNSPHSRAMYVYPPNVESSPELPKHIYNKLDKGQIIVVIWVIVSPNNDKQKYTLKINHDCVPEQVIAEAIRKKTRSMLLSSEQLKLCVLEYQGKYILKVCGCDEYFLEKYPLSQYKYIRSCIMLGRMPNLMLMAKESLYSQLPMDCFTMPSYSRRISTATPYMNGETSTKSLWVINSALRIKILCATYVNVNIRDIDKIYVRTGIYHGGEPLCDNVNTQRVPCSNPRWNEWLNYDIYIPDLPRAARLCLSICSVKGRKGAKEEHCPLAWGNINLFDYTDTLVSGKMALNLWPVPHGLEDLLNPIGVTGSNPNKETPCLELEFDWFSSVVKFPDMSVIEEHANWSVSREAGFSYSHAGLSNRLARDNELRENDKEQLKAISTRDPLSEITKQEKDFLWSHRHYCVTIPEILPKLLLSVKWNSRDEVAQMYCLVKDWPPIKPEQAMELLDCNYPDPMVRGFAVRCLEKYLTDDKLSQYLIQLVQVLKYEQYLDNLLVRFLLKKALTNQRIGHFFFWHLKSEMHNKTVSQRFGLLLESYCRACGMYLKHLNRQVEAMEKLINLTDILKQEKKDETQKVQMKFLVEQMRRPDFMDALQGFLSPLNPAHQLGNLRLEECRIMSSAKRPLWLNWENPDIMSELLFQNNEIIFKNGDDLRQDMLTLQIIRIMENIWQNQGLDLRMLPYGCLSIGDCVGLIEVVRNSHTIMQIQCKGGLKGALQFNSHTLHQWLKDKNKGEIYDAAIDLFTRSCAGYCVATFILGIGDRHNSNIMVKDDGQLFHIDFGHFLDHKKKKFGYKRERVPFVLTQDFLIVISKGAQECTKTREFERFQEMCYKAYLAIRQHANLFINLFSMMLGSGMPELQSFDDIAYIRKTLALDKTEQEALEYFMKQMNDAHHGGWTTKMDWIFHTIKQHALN
Mitogen-activated protein kinase kinase kinase 10 (Homo sapiens), sequence (Q02779 whole entry, looked up): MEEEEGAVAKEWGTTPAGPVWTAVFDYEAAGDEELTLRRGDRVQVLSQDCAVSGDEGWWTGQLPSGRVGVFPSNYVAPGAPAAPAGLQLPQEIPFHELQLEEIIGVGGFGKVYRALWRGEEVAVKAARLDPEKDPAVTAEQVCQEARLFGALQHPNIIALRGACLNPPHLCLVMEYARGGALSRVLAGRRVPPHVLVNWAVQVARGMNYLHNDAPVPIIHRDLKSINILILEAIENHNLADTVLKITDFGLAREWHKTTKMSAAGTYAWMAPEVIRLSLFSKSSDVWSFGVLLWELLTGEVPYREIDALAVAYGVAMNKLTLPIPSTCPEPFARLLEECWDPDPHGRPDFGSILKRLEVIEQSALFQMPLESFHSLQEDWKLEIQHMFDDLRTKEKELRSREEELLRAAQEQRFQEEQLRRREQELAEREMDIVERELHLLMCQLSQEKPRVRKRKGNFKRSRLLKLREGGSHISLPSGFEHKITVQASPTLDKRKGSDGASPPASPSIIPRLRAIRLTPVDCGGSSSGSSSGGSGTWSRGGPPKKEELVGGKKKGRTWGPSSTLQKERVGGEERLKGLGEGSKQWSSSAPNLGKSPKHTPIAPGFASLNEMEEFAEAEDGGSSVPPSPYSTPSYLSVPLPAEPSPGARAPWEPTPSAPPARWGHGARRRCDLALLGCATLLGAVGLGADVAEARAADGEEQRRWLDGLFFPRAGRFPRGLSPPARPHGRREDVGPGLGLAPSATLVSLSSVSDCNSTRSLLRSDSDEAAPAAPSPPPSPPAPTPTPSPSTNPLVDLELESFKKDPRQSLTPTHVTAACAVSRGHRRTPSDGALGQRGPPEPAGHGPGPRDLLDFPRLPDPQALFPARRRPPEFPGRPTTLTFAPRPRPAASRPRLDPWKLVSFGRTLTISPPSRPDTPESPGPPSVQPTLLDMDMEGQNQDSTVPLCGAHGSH
Cyclin-dependent kinase 14 (Homo sapiens), sequence (O94921 whole entry): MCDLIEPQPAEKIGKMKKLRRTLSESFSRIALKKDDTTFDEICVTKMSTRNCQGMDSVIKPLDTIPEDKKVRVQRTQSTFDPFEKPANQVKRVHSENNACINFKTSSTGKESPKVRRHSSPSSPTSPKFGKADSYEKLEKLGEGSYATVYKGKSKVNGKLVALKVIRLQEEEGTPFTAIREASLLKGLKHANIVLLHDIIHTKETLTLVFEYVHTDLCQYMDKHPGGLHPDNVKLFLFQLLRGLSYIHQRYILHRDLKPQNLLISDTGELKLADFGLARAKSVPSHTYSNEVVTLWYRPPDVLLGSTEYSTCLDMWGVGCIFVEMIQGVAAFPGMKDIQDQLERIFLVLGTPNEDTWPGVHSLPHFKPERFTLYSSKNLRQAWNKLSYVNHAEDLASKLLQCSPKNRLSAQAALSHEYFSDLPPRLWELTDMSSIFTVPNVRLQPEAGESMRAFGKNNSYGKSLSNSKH
Serine/threonine-protein kinase pim-2, sequence (Q9P1W9 whole entry, looked up): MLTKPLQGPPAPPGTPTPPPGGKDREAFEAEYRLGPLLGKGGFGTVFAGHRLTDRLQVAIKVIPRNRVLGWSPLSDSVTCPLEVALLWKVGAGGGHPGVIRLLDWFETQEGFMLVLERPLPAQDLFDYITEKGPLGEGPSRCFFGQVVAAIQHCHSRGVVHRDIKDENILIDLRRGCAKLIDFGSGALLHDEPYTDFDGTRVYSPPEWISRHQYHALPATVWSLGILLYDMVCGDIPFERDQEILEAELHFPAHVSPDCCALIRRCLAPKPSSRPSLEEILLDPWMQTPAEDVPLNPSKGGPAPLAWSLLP
Mitogen-activated protein kinase 3, sequence (P27361 whole entry): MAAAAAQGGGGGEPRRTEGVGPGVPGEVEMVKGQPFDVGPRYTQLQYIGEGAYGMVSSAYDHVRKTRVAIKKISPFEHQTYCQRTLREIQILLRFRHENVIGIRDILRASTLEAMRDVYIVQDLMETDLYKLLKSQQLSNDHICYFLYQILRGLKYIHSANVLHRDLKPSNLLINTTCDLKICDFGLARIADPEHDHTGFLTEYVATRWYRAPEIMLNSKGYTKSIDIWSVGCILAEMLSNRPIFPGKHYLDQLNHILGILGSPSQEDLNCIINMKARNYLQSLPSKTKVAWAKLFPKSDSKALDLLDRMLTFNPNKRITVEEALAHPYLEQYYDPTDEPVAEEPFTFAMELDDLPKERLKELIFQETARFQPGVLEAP
Dual specificity protein kinase CLK1, sequence (P49759 whole entry, looked up): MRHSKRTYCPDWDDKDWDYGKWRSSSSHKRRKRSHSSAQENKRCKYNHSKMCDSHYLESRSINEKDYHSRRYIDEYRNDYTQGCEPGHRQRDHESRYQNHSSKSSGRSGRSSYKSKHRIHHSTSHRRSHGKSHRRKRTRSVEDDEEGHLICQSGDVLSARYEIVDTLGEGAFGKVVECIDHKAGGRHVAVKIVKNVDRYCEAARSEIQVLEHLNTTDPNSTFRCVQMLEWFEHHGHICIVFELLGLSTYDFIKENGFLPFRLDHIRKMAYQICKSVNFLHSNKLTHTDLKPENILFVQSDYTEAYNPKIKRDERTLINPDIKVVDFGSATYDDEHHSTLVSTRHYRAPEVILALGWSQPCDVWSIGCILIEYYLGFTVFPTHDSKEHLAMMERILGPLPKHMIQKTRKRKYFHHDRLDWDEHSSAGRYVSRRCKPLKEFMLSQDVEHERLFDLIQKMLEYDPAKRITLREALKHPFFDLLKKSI

With `COCC(=O)NC/C=C/c1ccc2ncnc(Nc3ccc(Oc4ccc(C)nc4)c(C)c3)c2c1` [CP-724714], the % of control in experiment [1] came out at 95%.

Regarding `CNC(=O)Nc1ccc(-c2nc(N3CC4CCC(C3)O4)c3cnn(C4CCC5(CC4)OCCO5)c3n2)cc1`, the % of control is 100% in [2] and 11% in experiment [3].

The compound `Cc1cc([C@@H](C)Nc2ccccc2C(=O)O)c2nc(N3CCOCC3)cc(=O)n2c1` [AZD-6482] showed a % of control in experiment [4] of 70%.

`C=CC(=O)Nc1cccc(C(=O)Nc2ccc(Nc3cc(-c4[nH]c(SC)nc4C)ccn3)cc2)c1`: the % of control in experiment [5] (at 1 µM) is 86%; in [5] (at 5 µM), 81%.

In the case of `CN(C)C/C=C/C(=O)Nc1ccc(C(=O)N2CCCC(Nc3ncc(Cl)c(-c4c[nH]c5ccccc45)n3)C2)cc1` (stereo not drawn), the % of control in experiment [6] was found to be 100%.

For the compound `CN(C)CCOc1ccc(-c2nc(-c3ccncc3)c(-c3ccc4c(c3)CC/C4=N\O)[nH]2)cc1`, the % of control in [7] is 92%.

On to `O[C@H]1CC[C@H](Nc2ncc3nc(Nc4c(F)cc(F)cc4F)n([C@H]4CCOC4)c3n2)CC1`, for which the % of control in experiment [8] was determined as 100%; in [9] it was 56%.

Consider `CCC(=O)N1CCN(c2ccc(-n3c(=O)ccc4cnc5ccc(-c6cnc7ccccc7c6)cc5c43)cc2C(F)(F)F)CC1`, for which the % of control in experiment [10] amounted to 51%.

Consider `Nc1cnc(N2CCc3cc(S(=O)(=O)Nc4c(F)cc(Cl)cc4F)cc(N4CCCC4=O)c32)nc1` [TP-020n], for which the % of control in experiment [11] turned out to be 85%.

In turn, `COc1cc(N(C)c2ccnc3ccc(C(F)(F)F)cc23)cc(OC)c1OC` displayed a % binding in experiment [12] of 85%.
